Reference: US20260166162A1, “CARBON CHAIN SUBSTANCE FOR REGULATING TRANSMEMBRANE TRANSPORT AND FLUIDITY OF CELL MEMBRANES, AND PREPARATION AND USE THEREOF” (priority 2022, published 2026)
Like-named read-outs stand apart in the source and are kept apart here.

Assays:
Assay type in all cases: cell-based
293T cells = experiment: Cellular phagocytosis of DiD-loaded lipid vesicles (nano-drugs) by 293T cells (Example II-51, Table II-29); settings: 293T cells pretreated 4 h, DiD lipid vesicles 2 h, n=3, untreated control 226.46 ± 1.26
HIV pseudovirus (18A-41) = settings: 293T cells pretreated 4 h, n=3
[1] = system: influenza pseudovirus H7N9-Fluc; experiment: microbe, parasite or virus in culture; settings: n=3; for inhibition at 0.002 µM / inhibition at 0.005 µM / inhibition at 0.01 µM / inhibition at 0.05 µM / inhibition at 0.1 µM / inhibition at 1 µM / inhibition at 10 µM / inhibition at 50 µM / inhibition at 100 µM: Pseudovirus, H7N9, read-out: Inhibition rate (%)

Molecule | Fluorescence intensity (293T cells; 2 nM) | Fluorescence intensity (293T cells; 5 nM) | Fluorescence intensity (293T cells; 10 nM) | Fluorescence intensity (293T cells; 50 nM) | Fluorescence intensity (293T cells; 100 nM) | Fluorescence intensity (293T cells; 1 uM) | Fluorescence intensity (293T cells; 10 uM) | Fluorescence intensity (293T cells; 50 uM) | Fluorescence intensity (293T cells; 100 uM) | Inhibition rate (%) ([1]; 2 nM) | Inhibition rate (%) ([1]; 5 nM) | Inhibition rate (%) ([1]; 10 nM) | Inhibition rate (%) ([1]; 50 nM) | Inhibition rate (%) ([1]; 100 nM) | Inhibition rate (%) ([1]; 1 μM) | Inhibition rate (%) ([1]; 10 μM) | Inhibition rate (%) ([1]; 50 μM) | Inhibition rate (%) ([1]; 100 μM) | inhibition at 0.002 µM ([1]; 2 nM) [%] | inhibition at 0.005 µM ([1]; 5 nM) [%] | further results
Cc1c(C)c2c(c(C)c1O)CCC(C)(CCCC(C)CCCC(C)CCCC(C)C)O2 (stereo not drawn) [Vitamin-E, Vitamin E] | 100.41 ± 4.43 | 86.35 ± 2.47 | 67.85 ± 1.43 | 46.81 ± 1.48 | 22.67 ± 0.03 | 417.43 ± 15.23 | 217.04 ± 7.44 | 87.50 ± 2.33 | 92.89 ± 5.33 |  |  |  |  |  |  |  |  |  |  |  | Inhibition rate (%) (HIV pseudovirus (18A-41); 2 nM): 55.66 ± 6.03%; Inhibition rate (%) (HIV pseudovirus (18A-41); 5 nM): 61.87 ± 5.06%; Inhibition rate (%) (HIV pseudovirus (18A-41); 10 nM): 70.04 ± 4.65%; Inhibition rate (%) (HIV pseudovirus (18A-41); 50 nM): 79.33 ± 5.89%; Inhibition rate (%) (HIV pseudovirus (18A-41); 100 nM): 89.99 ± 8.97%; Inhibition rate (%) (HIV pseudovirus (18A-41); 1 μM): -84.33 ± 6.36%; Inhibition rate (%) (HIV pseudovirus (18A-41); 10 μM): 4.16 ± 0.11%; Inhibition rate (%) (HIV pseudovirus (18A-41); 50 μM): 61.36 ± 8.64%; Inhibition rate (%) (HIV pseudovirus (18A-41); 100 μM, negative value = promotes infection): 58.98 ± 6.37%
Ascorbic acid-undecanedioic acid |  |  |  |  |  |  |  |  |  | 36.88 ± 5.99 | 70.10 ± 2.01 | 71.74 ± 5.03 | 67.01 ± 5.59 | 74.96 ± 2.33 | 32.33 ± 2.37 | 44.08 ± 1.28 | 83.56 ± 4.03 | 73.01 ± 4.05 |  |  | 
C=CCCCCCCCCC(=O)[O-].[Na+] [Sodium undecylenate] | 135.63 ± 7.06 | 100.34 ± 8.06 | 89.79 ± 4.98 | 62.57 ± 3.60 | 57.18 ± 5.23 | 232.89 ± 12.26 | 325.29 ± 15.22 | 63.77 ± 3.37 | 58.70 ± 2.66 |  |  |  |  |  |  |  |  |  | 30.5 ± 2.36 | 22.1 ± 2.14 | inhibition at 0.01 µM ([1]; 10 nM): 53 ± 5.03%; inhibition at 0.05 µM ([1]; 50 nM): 56.3 ± 5.03%; inhibition at 0.1 µM ([1]; 100 nM): 53 ± 4.06%; inhibition at 1 µM ([1]; 1 μM): -7.39 ± 0.22%; inhibition at 10 µM ([1]; 10 μM): 40.2 ± 3.23%; inhibition at 50 µM ([1]; 50 μM): 71.4 ± 3.26%; inhibition at 100 µM ([1]; 100 μM): 54 ± 4.39%
CCCCCCCCC(=O)O [Nonanoic acid] | 157.30 ± 7.06 | 176.50 ± 7.06 | 106.35 ± 4.65 | 98.90 ± 8.26 | 106.35 ± 5.06 | 243.20 ± 13.65 | 135.36 ± 11.03 | 64.86 ± 5.54 | 104.28 ± 10.25 |  |  |  |  |  |  |  |  |  | 42 ± 3.06 | 49.7 ± 1.56 | inhibition at 0.01 µM ([1]; 10 nM): 58.3 ± 4.02%; inhibition at 0.05 µM ([1]; 50 nM): 57.3 ± 1.66%; inhibition at 0.1 µM ([1]; 100 nM): 36.4 ± 2.33%; inhibition at 1 µM ([1]; 1 μM): -4.93 ± 0.23%; inhibition at 10 µM ([1]; 10 μM): 34.8 ± 3.06%; inhibition at 50 µM ([1]; 50 μM): 40.1 ± 1.23%; inhibition at 100 µM ([1]; 100 μM): 43.8 ± 4.38%
CCCCCC/C=C\CCCCCCCC(=O)OC(C)C(N)C(=O)O (stereo not drawn) [Threonine-c-9-hexadecanoic acid] |  |  |  |  |  |  |  |  |  | 56.47 ± 5.47 | 79.21 ± 5.22 | 60.86 ± 4.03 | 59.03 ± 1.64 | 68.64 ± 2.03 | 12.84 ± 1.03 | 34.49 ± 4.49 | 71.06 ± 4.08 | 78.34 ± 4.39 |  |  | 
CCCCCCCCCC(=O)O [N-decanoic acid] | 131.26 ± 8.63 | 114.00 ± 11.2 | 94.34 ± 7.54 | 96.63 ± 6.99 | 143.94 ± 13.26 | 237.62 ± 17.5 | 147.74 ± 14.23 | 135.74 ± 15.2 | 127.34 ± 12.22 | 35.04 ± 2.04 | 31.86 ± 2.23 | 66.11 ± 2.33 | 75.38 ± 2.03 | 75.54 ± 4.00 | -32.33 ± 1.56 | -54.38 ± 4.38 | 41.08 ± 4.08 | 47.98 ± 3.09 |  |  | 
